According to patent US8507498B2, “4, 6-disubstituted aminopyrimidine derivatives as inhibitors of protein kinases” (Ingenium Pharmaceuticals GmbH, priority 2007, dated 2013):
pIC50: −log10 of the molar value.

Key:
HepG2 = assay: Growth assay using Alamar Blue; format: cell-based; details: Homo sapiens, read-out: IC50 against cell line HepG2
Method: (§1) Cells were seeded in 384-well plates (white, Greiner: 781080) at a density of […] cells per well in medium (RPMI+10% FCS).
(§2) Cells were incubated in 25 μl medium/well and were grown over night at 37° C., 6% CO2. On the following day compounds were added in DMSO in serial fold dilutions in fresh medium. Negative control wells were incubated without cells. Positive control wells were incubated with cells but without inhibitors (DMSO only). These wells served as data points to determine relative growth (given in % of the DMSO control [=100%]). The cell number was determined by addition of 5 μL Alamar Blue™ (Biosource DAL1100) to each well. Fluorescence was measures with an Analyst GT machine (Molecular Devices) at an excitation wavelength of 560 nm and an emission wavelength of 590 nm.
(§3) The following cell lines were used: A2780 (ECACC order number 93112519; human ovarian carcinoma; Semin Oncol (1984) 11:285; Cancer Res (1987) 47:414), B16F1 (ATCC order number CRL-6323; melanoma; Nat. New Biol. 242: 148-149, 1973); HCT116 (ATCC order number CCL-247; Colorectal carcinoma; Cancer Res (1981) 41:1751; Cancer (1995) 76:201), HT29 (ATTC order number HTB-38; colorectal adenocarcinoma; J. Biol. Chem. 271: 9490-9496, 1996) HepG2 (ATCC order number HB-8065; hepatocellular carcinoma; J. Biol. Chem. 271: 10073-10078, 1996), J774 (ATCC order number TIB-67; reticulum cell sarcoma; J. Biol. Chem. 271: 18431-18436, 1996); MCF7 (ATCC order number HTB-22; Breast carcinoma; J Natl Cancer Inst (1973) 51:1409; Cancer Res (1993) 53:5193), PM1 (obtainable from the National Institute of Allergy and Infectious Diseases; Division of AIDS via the NIH AIDS Research & Reference Reagent Program; Lusso P et al (1995), J Virol 69: 3712-3720) and U373-MAGI-CCR5 (obtainable from the National Institute of Allergy and Infectious Diseases; Division of AIDS via the NIH AIDS Research & Reference Reagent Program; Kensinger R D et al (2004), Antimicrob Agents Chemother 48: 1614-1623).
(§4) IC50s were calculated for each cell line based on serial dilutions.

B16F1 = assay: Growth assay using Alamar Blue; format: cell-based; details: Mus musculus, B16-F1, read-out: IC50 against cell line B16F1
Method: as §1, §2, §3, §4

MCF7 = assay: Growth assay using Alamar Blue; format: cell-based; details: Homo sapiens, read-out: IC50 against cell line MCF7
Method: as §1, §2, §3, §4

J774 = assay: Growth assay using Alamar Blue; format: cell-based; details: Mus musculus, read-out: IC50 against cell line J774
Method: as §1, §2, §3, §4

HCT116 = assay: Growth assay using Alamar Blue; format: cell-based; details: Homo sapiens, HCT-116, read-out: IC50 against cell line HCT116
Method: as §1, §2, §3, §4

U373-MAGI-CCR5E = assay: Growth assay using Alamar Blue; format: cell-based; details: read-out: IC50 against cell line U373-MAGI-CCR5E
Method: as §1, §2, §3, §4

PM1 = assay: Growth assay using Alamar Blue; format: cell-based; details: read-out: IC50 against cell line PM1
Method: as §1, §2, §3, §4

HT29 = assay: Growth assay using Alamar Blue; format: cell-based; details: Homo sapiens, HT-29, read-out: IC50 against cell line HT29
Method: as §1, §2, §3, §4

A2780 = assay: Growth assay using Alamar Blue; format: cell-based; details: Homo sapiens, read-out: IC50 against cell line A2780
Method: as §1, §2, §3, §4

CDK6/CycD3 = CDK6/CycD3 (Homo sapiens, UniProt Q00534); assay: General kinase assay (Example 80); format: biochemical; details: ATP 1 μM
Sequence of CDK6/CycD3 (Q00534 whole entry, species assumed): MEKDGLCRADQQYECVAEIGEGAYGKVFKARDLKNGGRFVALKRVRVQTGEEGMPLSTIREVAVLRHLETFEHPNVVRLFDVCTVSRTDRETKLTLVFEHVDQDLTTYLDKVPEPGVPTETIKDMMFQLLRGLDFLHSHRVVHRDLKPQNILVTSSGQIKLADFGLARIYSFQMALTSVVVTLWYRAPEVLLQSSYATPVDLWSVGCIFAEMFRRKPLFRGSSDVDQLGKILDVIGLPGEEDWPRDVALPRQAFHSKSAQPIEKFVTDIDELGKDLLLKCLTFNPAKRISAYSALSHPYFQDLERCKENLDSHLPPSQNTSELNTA
Sequence of CDK6/CycD3 (P30281 whole entry partner, species assumed): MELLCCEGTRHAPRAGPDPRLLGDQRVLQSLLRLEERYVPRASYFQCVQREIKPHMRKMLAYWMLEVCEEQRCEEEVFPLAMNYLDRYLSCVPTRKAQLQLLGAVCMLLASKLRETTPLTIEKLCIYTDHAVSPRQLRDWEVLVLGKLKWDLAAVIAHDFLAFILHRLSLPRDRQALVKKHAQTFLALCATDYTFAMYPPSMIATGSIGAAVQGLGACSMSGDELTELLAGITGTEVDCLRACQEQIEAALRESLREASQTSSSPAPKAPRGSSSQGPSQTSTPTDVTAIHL
Method: (§5) The inhibitory effect of compounds according to the present invention on the activity of protein kinases can be measured according to the following protocol: • Reaction Volume: 40 μl • Reaction Time: 60 min • Reaction Temperature: room temperature • Assay Plate: 96 well U bottom plate (Greiner, 650161) • MultiScreen-PH Plate: 96 well MAPH Filter Plates (Millipore, MAPHNOB50) • Filter Washing Solution: 0.75% H3PO4 • Scintillation Liquid Supermix Liquid Scintillator (PerkinElmer, 1200-439) Controls: • Negative Control (C−): 100 mM EDTA (Ethylenediaminetetraacetic acid), no Inhibitor • Positive Control (C+): no Inhibitor Reaction Buffer: • 20 mM Tris (Tris(hydroxymethyl)aminomethane hydrochloride), pH 7.5 • 10 mM MgCl2 • 1 mM DTT Final Assay Concentrations: • Kinase: Use kinase conc. yielding 10% ATP turn over. • ATP: 1 μM • Adenosine 5′-[-^33P]triphosphate:12.5 μCi/ml (Amersham Biosciences, BF1000) • Substrate: Myelin Basic Protein 10 μM (Invitrogen, 13228-010) Pipetting Sequence: • 1) Add 10 μl 4 fold concentrated Substrate+4 fold concentrated ATP in […] concentrated Reaction Buffer to each well of Assay Plate • 2) Add 10 μl 4 fold concentrated inhibitor in 4% DMSO in H2O to each well except to C− and C+wells • 3) Add 10 μl 4% DMSO in H2O to C− and C+wells • 4) Add 10 μl 500 mM EDTA in H2O to C− wells • 5) Add 10 μl 50 μCi/ml Adenosine 5′-[-^33P]triphosphate in H2O to each well • 6) Add 10 μl 4 fold concentrated kinase in Reaction Buffer to each well • 7) Incubate 1 hr at room temperature • 8) Add 10 μl 50 mM EDTA in H2O to each well except to C− wells • 9) Prepare MAPH plates by adding 200 μl 0.75% H3PO4 to each well • 10) Exhaust 0.75% H3PO4 using Millipore vacuum station • 11) Add 60 μl 0.75% H3PO4 to each well of MAPH Filter Plate • 12) Transfer 30 μl sample per well from Assay Plate to corresponding well of MAPH Filter Plate • 13) Incubate 30 min at room temperature • 14) Wash each well of MAPH Filter Plates 3× with 200 μl 0.75% H3PO4 using Millipore vacuum station. • 15) Add 20 μl Scintillation Liquid to each well of MAPH Filter Plate • 16) Seal MAPH Filter Plate • 17) Store MAPH Filter Plate 30 min in darkness • 18) Quantify radioactivity Results:
(§6) IC50s were calculated for each kinase based on serial dilutions.

CDK1/CycB = CDK1/CycB (Homo sapiens, UniProt P06493); assay: General kinase assay (Example 80); format: biochemical; details: ATP 1 μM
Sequence of CDK1/CycB (P06493 whole entry, species assumed): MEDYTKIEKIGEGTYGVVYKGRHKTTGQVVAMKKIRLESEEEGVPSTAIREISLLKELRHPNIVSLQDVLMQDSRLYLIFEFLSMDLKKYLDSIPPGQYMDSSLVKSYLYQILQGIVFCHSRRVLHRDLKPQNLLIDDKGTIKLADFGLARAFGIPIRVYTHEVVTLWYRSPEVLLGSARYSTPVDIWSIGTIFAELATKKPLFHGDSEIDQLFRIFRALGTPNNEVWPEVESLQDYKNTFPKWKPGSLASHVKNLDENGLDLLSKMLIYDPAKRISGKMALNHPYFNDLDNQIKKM
Sequence of CDK1/CycB (P14635 whole entry partner, species assumed): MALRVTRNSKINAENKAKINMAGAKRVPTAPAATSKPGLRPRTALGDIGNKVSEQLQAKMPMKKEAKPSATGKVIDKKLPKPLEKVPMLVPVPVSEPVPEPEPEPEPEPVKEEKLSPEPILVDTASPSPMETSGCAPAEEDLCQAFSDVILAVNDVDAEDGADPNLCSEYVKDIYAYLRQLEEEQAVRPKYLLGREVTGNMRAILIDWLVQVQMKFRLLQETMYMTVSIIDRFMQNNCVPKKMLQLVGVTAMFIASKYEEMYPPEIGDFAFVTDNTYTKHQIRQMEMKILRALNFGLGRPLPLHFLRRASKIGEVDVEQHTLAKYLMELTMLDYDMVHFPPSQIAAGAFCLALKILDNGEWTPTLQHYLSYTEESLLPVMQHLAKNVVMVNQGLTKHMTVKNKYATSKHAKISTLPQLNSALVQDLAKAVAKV
Method: as §5, §6

CDK4/CycD1 = CDK4/CycD1 (Homo sapiens, UniProt P11802); assay: General kinase assay (Example 80); format: biochemical; details: ATP 1 μM
Sequence of CDK4/CycD1 (P11802 whole entry, species assumed): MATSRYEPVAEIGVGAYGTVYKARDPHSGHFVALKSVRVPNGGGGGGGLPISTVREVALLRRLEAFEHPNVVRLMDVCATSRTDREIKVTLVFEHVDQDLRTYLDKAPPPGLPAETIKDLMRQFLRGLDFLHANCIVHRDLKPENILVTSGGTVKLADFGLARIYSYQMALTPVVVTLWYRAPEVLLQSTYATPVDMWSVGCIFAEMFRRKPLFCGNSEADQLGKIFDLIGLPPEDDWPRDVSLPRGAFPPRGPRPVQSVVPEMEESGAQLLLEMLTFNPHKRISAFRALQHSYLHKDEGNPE
Sequence of CDK4/CycD1 (P24385 whole entry partner, species assumed): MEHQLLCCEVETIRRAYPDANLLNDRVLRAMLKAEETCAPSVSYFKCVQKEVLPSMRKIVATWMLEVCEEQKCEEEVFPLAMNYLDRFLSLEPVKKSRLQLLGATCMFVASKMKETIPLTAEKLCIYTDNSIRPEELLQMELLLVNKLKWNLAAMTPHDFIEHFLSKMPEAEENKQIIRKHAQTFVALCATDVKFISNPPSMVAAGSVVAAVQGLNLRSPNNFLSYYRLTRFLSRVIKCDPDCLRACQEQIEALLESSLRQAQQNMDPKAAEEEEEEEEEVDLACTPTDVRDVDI
Method: as §5, §6

CDK2/CycA = biological target: T1, CDK2/CycA (Homo sapiens, UniProt P24941); assay: General kinase assay (Example 80); format: biochemical; details: ATP 1 μM
T1 construct: purchased ProQinase (Freiburg, Germany)
Method: (§7) Kinase assays determining CDK2/CyclinA and CDK5/p35 activity were performed as described by the manufacturer's recommendations (ProQinase (Freiburg, Germany) for CDK2/CyclinA and Upstate for CDK5/p35).
as §5, §6

CDK5/p35 = biological target: T2, CDK5/p35 (Homo sapiens, UniProt Q00535); assay: General kinase assay (Example 80); format: biochemical; details: ATP 1 μM
T2 construct: purchased Upstate
T2 sequence (Q00535 whole entry): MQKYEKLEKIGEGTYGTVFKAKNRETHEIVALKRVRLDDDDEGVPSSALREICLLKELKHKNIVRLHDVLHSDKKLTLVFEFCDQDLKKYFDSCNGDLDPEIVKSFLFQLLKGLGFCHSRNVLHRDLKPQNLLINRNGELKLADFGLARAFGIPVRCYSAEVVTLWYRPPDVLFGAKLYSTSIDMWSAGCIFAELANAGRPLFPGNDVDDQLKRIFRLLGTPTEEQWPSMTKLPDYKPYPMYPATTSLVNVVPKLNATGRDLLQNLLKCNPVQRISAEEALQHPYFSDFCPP
T2 sequence (Q15078 whole entry partner): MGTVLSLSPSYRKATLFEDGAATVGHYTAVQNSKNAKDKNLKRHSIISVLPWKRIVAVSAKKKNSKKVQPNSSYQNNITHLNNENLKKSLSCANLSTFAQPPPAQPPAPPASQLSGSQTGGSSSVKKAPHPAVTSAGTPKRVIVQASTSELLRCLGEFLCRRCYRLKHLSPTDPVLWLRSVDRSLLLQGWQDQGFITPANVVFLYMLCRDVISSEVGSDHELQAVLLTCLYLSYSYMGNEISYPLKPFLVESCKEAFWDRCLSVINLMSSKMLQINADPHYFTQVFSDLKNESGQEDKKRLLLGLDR
Method: as §7, §5, §6

HBV (HepG2-2.2.15 cells) = assay: HBV replication assay; format: cell-based; details: 6 days
Method: To test the anti-HBV-activity of compounds of the present invention the HBV-producing cell line HepG2-2.2.15 (M. A. Sells, PNAS 1987, 84, 1005-1009) is used. About 1.0×10^4 cells are seeded in 96-well microtiter plates in DMEM medium supplemented with 10% FCS. After incubation at 37° C. in 5% CO2 atmosphere for 24 hours the medium is replaced with fresh medium containing the appropriately diluted compounds of the present invention. 3 days later medium is replaced by freshly prepared compound-containing medium and the cells are incubated for further 3 days. Subsequently 200 μl lysis buffer (50 mM Tris-Cl 7.5; 1 mM EDTA 8.0; 0.5% NP40) per well is added. To remove cell debris and nucleic acids, lysate is centrifuged (15000 rpm, 10 min, 4° C.).
Cellular and viral RNA is removed by addition of 2 μl of RNase. 100 μl of the samples are spotted onto an uncharged nylon membrane pre-wetted with PBS (phosphate-buffered saline) using a 96 well-blotting chamber (MINIfold Dot-Blot, Schleicher&Schüll). […]
The fixed membrane is pre-hybridized in a standard hybridisation buffer (50% formamide, 5×SSPE, 10×Denhards, 1% SDS, 100 μg/ml salmon sperm DNA) for at least 3 hours at 42° C. and hybridised overnight against the labelled HBV-fragment. […] The intensity of the HBV-DNA is quantified using a phosphoimager (Fuji). […] Absorbance is monitored at 570 nm and 600 nm wavelength.

SMILES	pIC50 (HepG2)	pIC50 (B16F1)	pIC50 (MCF7)	pIC50 (J774)	pIC50 (HCT116)	pIC50 (U373-MAGI-CCR5E)	pIC50 (PM1)	pIC50 (HT29)	pIC50 (A2780)	pIC50 (CDK6/CycD3)	pIC50 (CDK1/CycB)	pIC50 (CDK4/CycD1)	pIC50 (CDK2/CycA)	pIC50 (CDK5/p35)	HBV replication (HBV-DNA) (HBV (HepG2-2.2.15 cells))
COc1ccccc1-c1cc(Nc2cccc(CS(N)(=O)=O)c2)ncn1 [Compound 85, C-{3-[6-(2-methoxy-phenyl)-pyrimidin-4-ylamino]-phenyl}-methanesulfonamide]	> 5.00	> 5.00	> 5.00	> 5.00	> 5.70	> 5.00	> 5.30	> 5.30	> 5.00	> 5.00	> 5.00	> 5.00	> 5.00	> 5.30	–
CN1CC[C@H](c2c(O)cc(O)c3c(=O)cc(-c4ccccc4Cl)oc23)[C@H](O)C1 [flavopiridol]	–	–	–	–	–	–	–	–	–	–	–	–	–	–	inhibits replication
